In patent US8093284B2, “Process for producing aqueous solution of doripenem” (Shionogi & Co., Ltd., priority 2005, dated 2012):

Experiments:
Assay type in all cases: physicochemical
[1] = Decomposition of doripenem on heating and dissolving an aqueous suspension in a batch manner; conditions: heating medium around 60° C., solution around 55° C., measured immediately after dissolution, 15.5 kg in 280 L water
Experimental: An aqueous suspension of doripenem (aqueous suspension in which 15.5 kg of doripenem had been mixed with 280 L of water) was cooled to 10° C. or lower to suppress decomposition during waiting. This aqueous suspension was dissolved as it was using a heating medium at around 60° C. to obtain an aqueous solution of doripenem, at around 55° C. A decomposition degree of doripenem measured immediately after dissolution of doripenem was about 7%.

[2] = Decomposition of doripenem on heating and dissolving an aqueous suspension with a continuous heating and dissolving equipment; conditions: continuous heating; position of 28 m of the equipment; heating source around 60° C., about 6 L/min, solution around 55° C. at outlet; 15.5 kg in 280 L water
Experimental: An aqueous suspension of doripenem (aqueous suspension in which 15.5 kg of doripenem had been mixed with 280 L of water) was cooled to 10° C. or lower to suppress decomposition during waiting. This aqueous suspension was passed through a continuous heating and dissolving equipment of an inner diameter of around 23 mm and a length of around 28 m, having a heating source at around 60° C. at about 6 L/min, and elevation in a temperature and dissolution were performed during passage through the machine to obtain an aqueous solution of doripenem at around 55° C. at an outlet of the dissolving machine. A decomposition degree of doripenem at a position of 28 m of the continuous heating and dissolving equipment was about 0.2%.

[3] = Decomposition of doripenem in an aqueous solution at 40, 50 or 60° C.; conditions: aqueous solution at 40° C., 50° C., or 60° C.
Experimental: Decomposition of doripenem in an aqueous solution of doripenem at 40° C., 50° C., or 60° C. was examined. […] FIG. 2, FIG. 3 and FIG. 4 show a doripenem decomposition curve at each temperature.

C[C@@H](O)[C@H]1C(=O)N2C(C(=O)O)=C(S[C@@H]3CN[C@H](CNS(N)(=O)=O)C3)[C@H](C)[C@H]12 [doripenem]
decomposition degree of doripenem [1]: about 7%
decomposition degree of doripenem [2]: about 0.2%
decomposition of doripenem in aqueous solution [3]: decomposed at these temperatures with time
